Measured values taken from US12582625B2, “Methods for treating neuroblastoma” (priority 2015, dated 2026).
Values joined by “and” are separate entries in the source; they are usually repeats but may differ in a detail not shown here. Equal entries are not always repeated.

What was measured:
urinary polyamines = experiment: NMTRC 002: urinary polyamine levels during DFMO therapy; assay type: in vivo, human
Experimental: Urinary Polyamine Levels. Patients were consented for urine analysis in NMTRC 002. […] Polyamines with at least one free primary amine were quantified using reverse-phase high-performance liquid chromatography (HPLC) as previously described (Thompson et al., 2010). Urinary N^1,N^12-diacetylspermine (N^1,N^12-Ac2Spm or DAS) was determined using the auto DAS reagent kit (Alfresa Pharma Co., Osaka, Japan), according to the manufacturer's instructions. The assay involves the specific binding between a bovine serum albumin-acetylspermine conjugate, as a DAS mimic, and colloidal gold antibody complexes, and has been previously described (Kawakita et al., 2011).

[1] = toxicities related to DFMO alone
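Wherever ALT elevation, maximum Grade 2, patients (%) is given: Open-label multicenter phase I 3+3 dose escalation in patients aged 0-21 years with relapsed or refractory neuroblastoma, dosed twice daily.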
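Wherever ALT elevation, maximum Grade 3, patients (%) is given: Open-label multicenter phase I 3+3 dose escalation in patients aged 0-21 years with relapsed or refractory neuroblastoma, dosed twice daily.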
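Wherever dose-limiting toxicities (DLTs) or drug related serious adverse events (SAEs) is given: Open-label multicenter phase I 3+3 dose escalation in patients aged 0-21 years with relapsed or refractory neuroblastoma, dosed twice daily.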
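Wherever tolerability in pediatric patients is given: Open-label multicenter phase I 3+3 dose escalation in patients aged 0-21 years with relapsed or refractory neuroblastoma, dosed twice daily.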

NCCCC(N)(C(=O)O)C(F)F (stereo not drawn) [DFMO, 2,5-diamino-2-(difluoromethyl) pentanoic acid]
DAS increase from Cycle 1 Day 1, individual patients (urinary polyamines; DFMO dose 500 mg/m^2 BID): Yes and No | UPA Cycle 1 Day 8 (sum of putrescine, N1AcSpd, N8AcSpd and DAS), individual patients (urinary polyamines; DFMO dose 500 mg/m^2 BID): 4.20 and 15.70 and 11.69 | DAS increase from Cycle 1 Day 1, individual patients (urinary polyamines; DFMO dose 750 mg/m^2 BID): No (2×) and Yes (3×) | UPA Cycle 1 Day 8 (sum of putrescine, N1AcSpd, N8AcSpd and DAS), individual patients (urinary polyamines; DFMO dose 750 mg/m^2 BID): 7.80 and 22.08 and 1.94 and 13.46 | DAS increase from Cycle 1 Day 1, individual patients (urinary polyamines; DFMO dose 1000 mg/m^2 BID): No and Yes (2×) | UPA Cycle 1 Day 8 (sum of putrescine, N1AcSpd, N8AcSpd and DAS), individual patients (urinary polyamines; DFMO dose 1000 mg/m^2 BID): 8.71 and 3.89 and 3.28 | DAS increase from Cycle 1 Day 1, individual patients (urinary polyamines; DFMO dose 1500 mg/m^2 BID): Yes (4×) and No (3×) | UPA Cycle 1 Day 8 (sum of putrescine, N1AcSpd, N8AcSpd and DAS), individual patients (urinary polyamines; DFMO dose 1500 mg/m^2 BID): 5.61 and 3.98 and 6.99 and 3.77 and 8.81 and 7.38 and 5.93 | UPA (C1D1 − C8D1)/C1D1 × 100 (urinary polyamines; ODC SNP rs2302615 genotype Any A): 0.66 ± 92.00 | UPA (C1D1 − C8D1)/C1D1 × 100 (urinary polyamines; ODC SNP rs2302615 genotype GG): 23.26 ± 35.59 | UPA (C1D1 − C8D1)/C1D1 × 100 (urinary polyamines; ODC SNP rs2302616 genotype Any T): 48.32 ± 18.24 | UPA (C1D1 − C8D1)/C1D1 × 100 (urinary polyamines; ODC SNP rs2302616 genotype GG): −24.46 ± 83.67 | increase of urinary polyamine levels from baseline (urinary polyamines; after one week of DFMO therapy, GG genotype at rs2302616): ~25% | decrease of urinary polyamine levels from baseline (urinary polyamines; after one week of DFMO therapy, minor T allele at rs2302616): ~50% | change in urinary N^1AcSpd between Day 8 and 15 (urinary polyamines; cycle 1, N=16 patients with complete data, P=1.000): No change | patients with increased urinary DAS (urinary polyamines; disease progression within 100 days of therapy start): 9/10 | urinary N^1AcSpd contents (urinary polyamines; first two weeks of treatment, population as a whole): reduced | average decrease of urinary polyamines from baseline (urinary polyamines; patients with disease progression after 100 days from start of therapy): 1.57±3.37 μmol/g Creatinine | average increase of total urinary polyamines (putrescine+N^1AcSpd+N^8AcSpd+DAS) from baseline (urinary polyamines; patients with disease progression less than 100 days after start of therapy): 6.56±16.29 μmol/g Creatinine | patients with increased urinary DAS (urinary polyamines; progression free up to 100 days): 1/7 | dose-limiting toxicities (DLTs) or drug related serious adverse events (SAEs) (500-1500 mg/m^2 BID, all dose levels): No dose-limiting toxicities (DLTs) or drug related serious adverse events (SAEs) were observed | tolerability in pediatric patients (500-1500 mg/m^2 twice per day by mouth): well tolerated | ALT elevation, maximum Grade 2, patients (%) (Cycle 1 (N = 21)): 1 (5%) | ALT elevation, maximum Grade 3, patients (%) (Cycle 1 (N = 21)): 0 | ALT elevation, maximum Grade 4, patients (%) (Cycle 1 (N = 21)): 0 | ALT elevation, maximum Grade 5, patients (%) (Cycle 1 (N = 21)): 0 | AST elevation, maximum Grade 2, patients (%) (Cycle 1 (N = 21)): 0 | AST elevation, maximum Grade 3, patients (%) (Cycle 1 (N = 21)): 1 (5%) | AST elevation, maximum Grade 4, patients (%) (Cycle 1 (N = 21)): 0 | AST elevation, maximum Grade 5, patients (%) (Cycle 1 (N = 21)): 0 | Anemia, maximum Grade 2, patients (%) (Cycle 1 (N = 21)): 2 (10%) | Anemia, maximum Grade 3, patients (%) (Cycle 1 (N = 21)): 0 | Anemia, maximum Grade 4, patients (%) (Cycle 1 (N = 21)): 1 (5%) | Anemia, maximum Grade 5, patients (%) (Cycle 1 (N = 21)): 0 | Anorexia, maximum Grade 2, patients (%) (Cycle 1 (N = 21)): 0 | Anorexia, maximum Grade 3, patients (%) (Cycle 1 (N = 21)): 1 (5%) | Anorexia, maximum Grade 4, patients (%) (Cycle 1 (N = 21)): 0 | Anorexia, maximum Grade 5, patients (%) (Cycle 1 (N = 21)): 0 | Conjunctivitis, maximum Grade 2, patients (%) (Cycle 1 (N = 21)): 1 (5%) | Conjunctivitis, maximum Grade 3, patients (%) (Cycle 1 (N = 21)): 0 | Conjunctivitis, maximum Grade 4, patients (%) (Cycle 1 (N = 21)): 0 | Conjunctivitis, maximum Grade 5, patients (%) (Cycle 1 (N = 21)): 0 | Constipation, maximum Grade 2, patients (%) (Cycle 1 (N = 21)): 1 (5%) | Constipation, maximum Grade 3, patients (%) (Cycle 1 (N = 21)): 0 | Constipation, maximum Grade 4, patients (%) (Cycle 1 (N = 21)): 0 | Constipation, maximum Grade 5, patients (%) (Cycle 1 (N = 21)): 0 | Diarrhea, maximum Grade 2, patients (%) (Cycle 1 (N = 21)): 1 (5%) | Diarrhea, maximum Grade 3, patients (%) (Cycle 1 (N = 21)): 0 | Diarrhea, maximum Grade 4, patients (%) (Cycle 1 (N = 21)): 0 | Diarrhea, maximum Grade 5, patients (%) (Cycle 1 (N = 21)): 0 | GGT elevation, maximum Grade 2, patients (%) (Cycle 1 (N = 21)): 1 (5%) | GGT elevation, maximum Grade 3, patients (%) (Cycle 1 (N = 21)): 0 | GGT elevation, maximum Grade 4, patients (%) (Cycle 1 (N = 21)): 0 | GGT elevation, maximum Grade 5, patients (%) (Cycle 1 (N = 21)): 0 | Hypoalbumenia, maximum Grade 2, patients (%) (Cycle 1 (N = 21)): 1 (5%) | Hypoalbumenia, maximum Grade 3, patients (%) (Cycle 1 (N = 21)): 0 | Hypoalbumenia, maximum Grade 4, patients (%) (Cycle 1 (N = 21)): 0 | Hypoalbumenia, maximum Grade 5, patients (%) (Cycle 1 (N = 21)): 0 | Hypophosphatemia, maximum Grade 2, patients (%) (Cycle 1 (N = 21)): 1 (5%) | Hypophosphatemia, maximum Grade 3, patients (%) (Cycle 1 (N = 21)): 0 | Hypophosphatemia, maximum Grade 4, patients (%) (Cycle 1 (N = 21)): 0 | Hypophosphatemia, maximum Grade 5, patients (%) (Cycle 1 (N = 21)): 0 | Infection, sinus, maximum Grade 2, patients (%) (Cycle 1 (N = 21)): 0 | Infection, sinus, maximum Grade 3, patients (%) (Cycle 1 (N = 21)): 0 | Infection, sinus, maximum Grade 4, patients (%) (Cycle 1 (N = 21)): 0 | Infection, sinus, maximum Grade 5, patients (%) (Cycle 1 (N = 21)): 0 | Mouth pain, maximum Grade 2, patients (%) (Cycle 1 (N = 21)): 0 | Mouth pain, maximum Grade 3, patients (%) (Cycle 1 (N = 21)): 0 | Mouth pain, maximum Grade 4, patients (%) (Cycle 1 (N = 21)): 0 | Mouth pain, maximum Grade 5, patients (%) (Cycle 1 (N = 21)): 0 | Nausea, maximum Grade 2, patients (%) (Cycle 1 (N = 21)): 0 | Nausea, maximum Grade 3, patients (%) (Cycle 1 (N = 21)): 0 | Nausea, maximum Grade 4, patients (%) (Cycle 1 (N = 21)): 0 | Nausea, maximum Grade 5, patients (%) (Cycle 1 (N = 21)): 0 | Neuropathy, maximum Grade 2, patients (%) (Cycle 1 (N = 21)): 0 | Neuropathy, maximum Grade 3, patients (%) (Cycle 1 (N = 21)): 0 | Neuropathy, maximum Grade 4, patients (%) (Cycle 1 (N = 21)): 0 | Neuropathy, maximum Grade 5, patients (%) (Cycle 1 (N = 21)): 0 | Neutrophil count decrease, maximum Grade 2, patients (%) (Cycle 1 (N = 21)): 1 (5%) | Neutrophil count decrease, maximum Grade 3, patients (%) (Cycle 1 (N = 21)): 1 (5%) | Neutrophil count decrease, maximum Grade 4, patients (%) (Cycle 1 (N = 21)): 0 | Neutrophil count decrease, maximum Grade 5, patients (%) (Cycle 1 (N = 21)): 0 | Pain, maximum Grade 2, patients (%) (Cycle 1 (N = 21)): 0 | Pain, maximum Grade 3, patients (%) (Cycle 1 (N = 21)): 0 | Pain, maximum Grade 4, patients (%) (Cycle 1 (N = 21)): 0 | Pain, maximum Grade 5, patients (%) (Cycle 1 (N = 21)): 0 | Platelet count decrease, maximum Grade 2, patients (%) (Cycle 1 (N = 21)): 1 (5%) | Platelet count decrease, maximum Grade 3, patients (%) (Cycle 1 (N = 21)): 1 (5%) | Platelet count decrease, maximum Grade 4, patients (%) (Cycle 1 (N = 21)): 0 | Platelet count decrease, maximum Grade 5, patients (%) (Cycle 1 (N = 21)): 0 | Rash, maximum Grade 2, patients (%) (Cycle 1 (N = 21)): 0 | Rash, maximum Grade 3, patients (%) (Cycle 1 (N = 21)): 0 | Rash, maximum Grade 4, patients (%) (Cycle 1 (N = 21)): 0 | Rash, maximum Grade 5, patients (%) (Cycle 1 (N = 21)): 0 | Sleep disturbance, maximum Grade 2, patients (%) (Cycle 1 (N = 21)): 1 (5%) | Sleep disturbance, maximum Grade 3, patients (%) (Cycle 1 (N = 21)): 0 | Sleep disturbance, maximum Grade 4, patients (%) (Cycle 1 (N = 21)): 0 | Sleep disturbance, maximum Grade 5, patients (%) (Cycle 1 (N = 21)): 0 | Urinary retention, maximum Grade 2, patients (%) (Cycle 1 (N = 21)): 1 (5%) | Urinary retention, maximum Grade 3, patients (%) (Cycle 1 (N = 21)): 0 | Urinary retention, maximum Grade 4, patients (%) (Cycle 1 (N = 21)): 0 | Urinary retention, maximum Grade 5, patients (%) (Cycle 1 (N = 21)): 0 | Vomiting, maximum Grade 2, patients (%) (Cycle 1 (N = 21)): 1 (5%) | Vomiting, maximum Grade 3, patients (%) (Cycle 1 (N = 21)): 0 | Vomiting, maximum Grade 4, patients (%) (Cycle 1 (N = 21)): 0 | Vomiting, maximum Grade 5, patients (%) (Cycle 1 (N = 21)): 0 | White blood cell decreased, maximum Grade 2, patients (%) (Cycle 1 (N = 21)): 0 | White blood cell decreased, maximum Grade 3, patients (%) (Cycle 1 (N = 21)): 0 | White blood cell decreased, maximum Grade 4, patients (%) (Cycle 1 (N = 21)): 0 | White blood cell decreased, maximum Grade 5, patients (%) (Cycle 1 (N = 21)): 0 | ALT increase, N of subjects [1]: 1 | ANC decrease, N of subjects [1]: 2 | AST increase, N of subjects [1]: 1 | anemia, N of subjects [1]: 3 | anorexia, N of subjects [1]: 1 | constipation, N of subjects [1]: 1 | decreased platelet count, N of subjects [1]: 2 | diarrhea, N of subjects [1]: 1 | hypoalbuminemia, N of subjects [1]: 1 | hypophosphatemia, N of subjects [1]: 1 | increased GGT, N of subjects [1]: 1 | infection (conjunctivitis), N of subjects [1]: 1 | sleep disturbance, N of subjects [1]: 1 | urinary retention, N of subjects [1]: 1 | vomiting, N of subjects [1]: 1 | maximum tolerated dose (MTD) (up to 1500 mg/m^2 BID): not established
